ChEMBL document CHEMBL1147379, “Antineoplastic agents, 256. Cell growth inhibitory isocarbostyrils from Hymenocallis” (1993)
Values after ≈ are worked out from the molar mass of the structure shown.

Tested on: P388
Assay: Growth inhibition of mouse P388 cells
Format: functional
Details: read-out: ED50 (the source's name)

Structure (SMILES): O=C1N[C@H]2[C@H](O)[C@H](O)[C@@H](O)C[C@@H]2c2cc3c(c(O)c21)OCO3
- EC50: 0.02 µg/mL (≈ 0.0647 µM)
